As usually defined, the Tmax is the time from dosing to the highest level. The half-life is the time needed for the level to fall by half in the phase considered. Low readings indicate fast loss, high ones slow loss.

Results on one compound are retold here after article PMC12901191, “Detection and pharmacokinetics of licochalcone A in brains of neuroinflammatory mouse model” (Naunyn-Schmiedeberg's Archives of Pharmacology, 2025).

The structures appear in SMILES notation. Like-named read-outs stand apart in the source and are kept apart here.

Series [1] deals with LPS-neuroinflammatory mouse model. The series can be described thus: Novel object recognition (NOR) test in LPS-neuroinflammatory mouse model. In kind it is in vivo, Swiss albino mice. The note with it: drug control group (saline + LCA 20 mg/kg ip) vs control group. An excerpt: A neuroinflammatory mouse model induced by LPS was developed as described before by Lee et al. ([2008a]). This neuroinflammatory model was well-characterized previously by our research group, showing memory impairment, neuroinflammation, and neurodegenerative changes in the cortex and hippocampus (Zakaria et al. [2016]; Abdel-Kader et al. [2021]; Samir et al. [2023]; Wagdy et al. [2023]).
(§1) Mice were divided randomly into four groups as follows: (i) control group, mice received vehicle injections (saline followed by DMSO/corn-oil vehicle); (ii) LPS onlygroup, LPS followed by the DMSO/corn-oil vehicle; (iii) treatment group, LPS followed by LCA; and (iv) drug control group, saline followed by LCA. […] This timing also avoids potential direct pharmacological interaction and is consistent with previous post-LPS treatment protocols (Zakaria et al. [2016]; Badshah et al. [2016]).
(§2) The behavioral assessment was performed 24 h after the final dose (day 8), after which all mice were sacrificed, and their brains were collected for subsequent bioanalysis (Fig. 1).
A total number of 40 mice were randomly assigned into four groups (n = 10 per group) before performing the behavioral experiments and kept blinded throughout the study until all data had been collected. The experimental unit in these assays was a single animal, and the primary outcomes were memory and cognitive functions. […]

For series [2] the test system is unchanged. The series can be described thus: Y-maze spontaneous alternation test in LPS-neuroinflammatory mouse model. It is filed as in vivo, Swiss albino mice. Here is the method: A neuroinflammatory mouse model induced by LPS was developed as described before by Lee et al. ([2008a]). This neuroinflammatory model was well-characterized previously by our research group, showing memory impairment, neuroinflammation, and neurodegenerative changes in the cortex and hippocampus (Zakaria et al. [2016]; Abdel-Kader et al. [2021]; Samir et al. [2023]; Wagdy et al. [2023]). […]
The short-term spatial working memory and exploratory activity of the mice were assessed using the Y-maze spontaneous alteration test, according to the working protocol of Arai et al. ([2001]). […] The sequences of animal’s entries in the arms were recorded. For an entry to be counted, the four paws and the tail of the animal have to be inside the arm. […] Working memory was calculated based on the number of spontaneous alternations, which is defined as successive entries into three distinct arms consecutively without any repeated entry to any of the arms. The results were expressed as “spontaneous alternation percentage” using the equation: % spontaneous alternation = [Spontaneous alternations/(Total number of entries − 2)] × 100.

Series [3] is described as follows: Pharmacokinetic study of LCA in mice brain tissues (non-compartmental analysis). It is filed as in vivo, Swiss albino mice. The procedure: (§3) Mice were sacrificed by cervical dislocation, and their brains were collected and separated from the cerebellum. The collected brains were washed with ice-cold Tris buffer (5 mM, pH 7.4) and then homogenized with 1 mL of the Tris buffer/100 mg brain using the 5-mL Dounce homogenizer. The brain homogenates were stored at − 80 °C till analysis. […] The homogenization included the entire brain components, allowing for a comprehensive analysis of LCA in the samples.
Brain homogenates were removed from the − 80 °C freezer and allowed to come to room temperature. Brain matrix extraction was performed as described before (Paulke et al. [2006]) with slight modifications. Briefly, in tightly sealed polypropylene tubes, 300 µL brain homogenate was mixed with 300 µL methanol, 200 µL tert-butyl hydroquinone (TBHQ) solution (5 mg/mL), and 200 µL HCl (1 M). The reaction mixture was vortexed for 1 min and inserted into a heat block at 90 °C for 2 h. The reaction tubes were then centrifuged at 3700 × g for 10 min, and the supernatant was collected in micro-centrifuge tubes and transferred for derivatization.
The chosen method for derivatization in this study involves silylation, utilizing the N, O-Bis(trimethylsilyl) trifluoroacetamide (BSTFA) as a silylating agent. The derivatization reaction is employed to produce silyl derivatives of the analyte, which are more volatile and more thermally stable. The reaction replaces active hydrogens with trimethylsilyl groups (TMS) through SN2 nucleophilic attack (Halket and Zaikin [2003]). Extracted samples or reference standards were first placed in a vacuum concentrator for 2 h before performing the derivatization reaction to ensure complete dryness. Dried sample residues were derivatized by adding 150 µL of the mixture of BSTFA and pyridine in a (4:1) ratio into the samples’ tubes. The derivatization reaction was performed at 60 °C for 1 h (Fig. 2). The tubes were centrifuged at 21,460 × g for 1 min and transferred to glass vials suitable for GC–MS/MS analysis.
For pharmacokinetic analysis, 30 adult male Swiss albino mice were randomly divided into six groups (n = 5 for each group), according to sample collection times. […] Mice were sacrificed, and brain tissues were collected after 0, 2, 4, 6, 8, and 24 h post-dosing and were then kept at − 80 °C before sample treatment. Collected brain samples were then extracted and derivatized as described previously and then further analyzed using the GC–MS/MS in MRM mode using the established MRM transitions. Pharmacokinetic parameters were determined by non-compartmental analysis using PK solutions software, version 2.0 (Summit Research Services).

A short description of series [4]: Permeability of LCA across BBB: GC-MS/MS detection and quantification in brain tissue after the treatment regimen. It is filed as in vivo, Swiss albino mice. The note with it: treated (LPS + LCA) and drug control groups; peak at RT 11.22 min.
Text: as §1, §2, §3
Brain homogenates were removed from the − 80 °C freezer and allowed to come to room temperature. […]
For both qualitative and quantitative analysis on mice brain samples, the MSD was operated in time-segmented MRM mode for the selected transition ions.

Details of series [5]: method as in Weng et al. [2019]. Conditions: ref Weng et al. [2019], cited from earlier work.
The mark [6] stands for this setting: male, Swiss albino, mouse, brain, ip, 20 mg/kg.
[7] abbreviates: single ip 20 mg/kg LCA after 7 days LPS, brain tissue, mean ± SD, n = 5.
Setting [8] is: intravenous 5 mg/kg single dose.

As to `C=CC(C)(C)c1cc(/C=C/C(=O)c2ccc(O)cc2)c(OC)cc1O` [LCA, (2E)−3-[4-Hydroxy-2-methoxy-5-(2-methylbut-3-en-2-yl)phenyl]−1-(4-hydroxyphenyl)prop-2-en-1-one], in series [1], the “non-spatial memory (NOR), LCA alone vs control” value is “did not show alteration”. Also, the “explorative behavior / spatial short-term memory (spontaneous alternation %, Y-maze)” value in series [2] (LPS + LCA vs LPS group, LCA 20 mg/kg ip days 4-7, LPS 250 µg/kg ip days 1-7, tested day 8, p < 0.01) is given as “restored the explorative behavior”. Further, the “spatial short-term memory (Y-maze), LCA alone vs control” value in series [2] (drug control group (saline + LCA 20 mg/kg ip) vs control group) was “did not show alteration”. For the same compound, in series [3] (setting [6]), the Tmax is 4 h and the half-life is 17.1 ± 5.98 h. The MRT last in series [3] (male, Swiss albino, mouse, brain, ip, 20 mg/kg, read-out: MRT0-t) amounted to 10.5 ± 0.69 h. In series [3] (setting [7]), the Cl/F was 17.90 ± 5.33 (mg/kg)/h and the Vz/F worked out at 529.74 ± 139.18 mg/kg. For the same compound, the “concentration in brain tissue until 8 h post-injection” value in series [3] (single ip 20 mg/kg LCA after 7 days LPS, up to 8 h post-injection) is on record as “above 15 µg/mg”. In addition, in series [4], the “detection of LCA in brain (passage of BBB)” value was “presence of LCA peak”. In addition, in series [5] (setting [8]), the “Cmax (plasma)” value is given as 3173.5 ± 483.0 ng/mL and the “Tmax (plasma)” value is given as 0.0833 h. Further, in series [5] (oral 15 mg/kg single dose), the “Cmax (plasma)” value is listed as 60.7 ± 13.9 ng/mL and the “Tmax (plasma)” value is 0.5 h.
